Test results from PMC10630888, “Nuclear ERK1/2 signaling potentiation enhances neuroprotection and cognition via Importinα1/KPNA2” (EMBO Molecular Medicine, 2023).
“And” between values parts separate entries of the source, which are not always exact repeats. Equal entries are not always repeated.

What was measured:
pERK in DG = experiment: pERK in dentate gyrus of Tg2576 mice; format: in vivo, mouse; details: for pERK in dentate gyrus (Fig 5 panel k): individual animals
Experimental: (§1) Immunohistochemistry was performed as described in Papale et al ([2016]). Briefly, 1 h after blocking in 5% normal goat serum and 0.1% Triton X‐100 solution, free‐floating sections were incubated overnight at 4°C with one of the following primary antibodies: anti‐phospho‐p44/42 MAP kinase (Thr202/Tyr204) (1:200, Cell Signaling Technology #9101), anti‐phospho–Elk‐1 (Ser383) (1:100, Cell Signaling #9181), anti‐phospho‐Kv4.2 (Thr607)‐R (1:100, Santa Cruz sc22254‐R), anti‐phospho‐MSK‐1 (1:100 Cell Signaling Technology #9595), anti‐phospho‐MEK1/2 (Ser218/222) (1:100, sc‐7995 Santa Cruz Biotechnology), c‐Fos (1:100, sc‐52 Santa Cruz Biotechnology), tyrosine Hydroxylase (monoclonal 1:1,000, Sigma Aldrich, Italy) and anti‐DARPP‐32 (H3) (1:100, Santa Cruz Biotechnology, #sc‐271111) overnight at 4°C. Sections were then incubated with biotinylated goat anti‐rabbit IgG (1:200, Vector Laboratories) or biotinylated goat anti‐mouse (1:200, Vector Laboratories) for 2 h. The classic avidin‐peroxidase complex (ABC, Vector, UK) protocol was applied, using 3,3′‐diaminobenzidine (DAB, Sigma) as a chromogen.
Tg2576 mice were administered with RB5 or Scramble (20 mg/kg i.p.) for either 7 days, for IHC analysis, or with a single injection (20 mg/kg i.p.), for behavioral analysis.

p-ERK in dorsal striatum = experiment: In vivo time course of striatal pERK after RB5; set-up: species or system mouse; details: mice, acute systemic administration, 20 mg/kg i.p.
Experimental: For the dose response study, 2‐month‐old CD1 male mice were injected with different doses of RB5 (1, 2.5, 5, 10, and 20 mg/kg, i.p.), whereas the control group was injected with 20 mg/kg (i.p.) of SCR peptide. Mice were perfused 1 h later with 4% PFA. For the time course study, mice were injected i.p. with 20 mg/kg of RB5 and perfused at different time points with 4% PFA (1, 3, 6, and 12 h). The control group was injected i.p. with 20 mg/kg of SCR. Brains were postfixed in 4% PFA for 24 h and cryoprotected overnight in sucrose 30% before immunohistochemistry against phospho‐ERK1/2.
Immunohistochemistry was performed as described in Papale et al ([2016]). […]
(§2) For in vivo immunohistochemistry experiments, images were acquired from the dorsal striatum using a Leica DM IRB microscope under a 20× objective. The number of p‐ERK, p‐MSK‐1, p‐ELK, p‐MEK‐1, p‐VG K+, c‐Fos, and DARPP‐32 positive cells was counted in 2–3 consecutive sections per mouse, bilaterally and averaged across the sections using the ImageJ software by a blind investigator to the condition. Estimation of nigral cell loss was assessed by quantifying the number of TH‐immunopositive neurons of the SNc in 360 μm‐spaced sections for each animal.

p-ERK = experiment: Striatal p-ERK immunohistochemistry 1 h after single injection; format: in vivo, mouse; details: single injection 20 mg/kg i.p., individual mice
Experimental: as §1, §2

[1] = test system: S6 (Ser240/244) phosphorylation; experiment: Striatal pS6 (Ser240/244) immunofluorescence 1 h after single injection; format: in vivo, mouse; details: single injection 20 mg/kg i.p., individual mice
Experimental: Immunofluorescence was performed as described in Papale et al ([2016]). Briefly, 1 h after blocking in 5% normal goat serum, slices were incubated overnight at 4°C with the following primary antibodies: anti‐phospho (Ser10)‐acetylated (Lys14) histone H3 (1:1,000, Millipore), anti‐phospho‐S6 ribosomal protein (Ser235/236) (1:200, Cell Signaling Technology) anti‐phospho‐S6 ribosomal protein (Ser240/244) (1:200, Cell Signaling), cleaved caspase‐3 (1:200, Cell Signaling Technology), anti‐mutant Huntingtin (1:100, Developmental Studies Hybridoma Bank, University of Iowa, #MW8), and NeuN (1:1,000, Millipore). […]
In ex‐vivo and in‐vivo immunofluorescence experiments, the number of p‐S6 or p‐AcH3 immunoreactive neurons among NeuN‐positive neurons was counted in 2–3 consecutive striatal sections per mouse in four fields per section. Caspase 3‐positive cells were quantified among NeuN‐positive neurons in each slide and expressed as percentage (ratio between caspase‐3‐positive cells and total NeuN‐positive neurons) for each field acquired through the slide. The number of cells showing mutant Huntingtin inclusions were expressed as a percentage of mutant Huntingtin‐positive cells among DAPI‐positive cells.

pERK1/2 = pERK1/2 in striatum of zQ175 females after RB5; format: in vivo, mouse; details: zQ175 females and WT controls, RB5 for 9 days
Experimental: as §1, with “Sections were then incubated with biotinylated goat anti‐rabbit IgG (1:200, Vector Laboratories) or biotinylated goat anti‐mouse (1:200, Vector Laboratories) for 2 h. The classic avidin‐peroxidase complex (ABC, Vector, UK) protocol was applied, using 3,3′‐diaminobenzidine (DAB, Sigma) as a chromogen.” left out
For in vivo immunohistochemistry experiments, images were acquired from the dorsal striatum using a Leica DM IRB microscope under a 20× objective. The number of p‐ERK, p‐MSK‐1, p‐ELK, p‐MEK‐1, p‐VG K+, c‐Fos, and DARPP‐32 positive cells was counted in 2–3 consecutive sections per mouse, bilaterally and averaged across the sections using the ImageJ software by a blind investigator to the condition. Estimation of nigral cell loss was assessed by quantifying the number of TH‐immunopositive neurons of the SNc in 360 μm‐spaced sections for each animal. […]

[2] = test system: SC-CA1 synapses, CA1 pyramidal neurons; experiment: Whole-cell patch clamp, EPSCs at SC-CA1 synapses in hippocampal slices; format: cell-based, rat; details: peptide 50 μM in intracellular solution, 30–35 min, mean, RB5 n = 12 cells, Scr n = 8 cells, 4 animals

Row | Substance | ERK phosphorylation in dentate gyrus (pERK in DG; Tg2576 mice, 7 months old, 20 mg/kg i.p. for 7 days) | pERK in dentate gyrus (Fig 5 panel k) (pERK in DG; Tg2576 mice) | pERK in dentate gyrus (Fig 5 panel k) (pERK in DG; WT mice) | half-life (suggested by duration of striatal ERK phosphorylation) (p-ERK in dorsal striatum) [h] | p-ERK positive cells in striatum (p-ERK; ERK1+/+ (WT) mice) | p-ERK positive cells in striatum (p-ERK; ERK1-/- mice) | p-ERK positive cells in striatum (p-ERK; 1 h) | pS6 (Ser240/244) positive neurons in striatum [1] | pERK1/2 levels in striatum (pERK1/2) | Average EPSC amplitude over last 5 min of recording, normalized to first minute [2] | Average EPSC amplitude over last 5 min of recording, normalized to first minute ([2]; listed as Scr)
1 | GRKKRRQRRRPPQGGGGGEPRRTEGVGPGVPGEVEMVKGQPFDV [RB5, six D-amino acids, acetylated N-terminus] | restored ERK phosphorylation | 11.21 and 6.88 and 9.13 and 7.17 and 10.84 and 11.62 and 10.66 and 8.7 | 8.18 and 9.67 and 8.87 and 7.48 and 10.41 and 9.92 and 13.01 | 6 to 12 | enhanced pERK and pAcH3 in WT | not in ERK1 KO mice | greatly enhanced striatal ERK phosphorylation | no effect | enhanced | – | –
2 | SCR: ineffective Scramble version of RB5 containing a TAT sequence (GRKKRRQRRRPPRVGPGVPEGVGVAVFGVKEPGQTGDVGPVGE) [reference compound] | – | – | – | – | – | – | – | – | – | had no effect | 0.9389
